Each block holds one compound with its values, some of them ahead of it. Activity calls are given as the source filed them.
Experiments:
[1] = molecular target: T1, RNA-binding protein pos-1 (Caenorhabditis elegans, UniProt G5EF15); assay: disruptors of C. elegans POS-1 RNA interaction – biochemical, fluorescence polarization, dose response (AID 1964);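 also: purified POS-1 fused to maltose binding protein made in E. coli; potency of compounds blocking POS-1 binding to fluorescent RNA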
T1 sequence (G5EF15 whole entry): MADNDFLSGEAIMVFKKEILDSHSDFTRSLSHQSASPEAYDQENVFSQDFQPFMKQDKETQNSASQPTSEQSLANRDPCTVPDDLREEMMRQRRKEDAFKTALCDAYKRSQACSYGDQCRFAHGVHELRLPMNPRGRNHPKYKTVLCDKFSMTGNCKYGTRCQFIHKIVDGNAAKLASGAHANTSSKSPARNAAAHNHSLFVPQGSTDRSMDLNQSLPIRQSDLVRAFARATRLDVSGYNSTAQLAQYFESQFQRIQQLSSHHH

[2] = molecular target: T2, Runt-related transcription factor 1/Core-binding factor subunit beta (Homo sapiens, UniProt Q01196+Q13951); assay: Runt domain/CBFb-SMMHC interaction disruptors – biochemical, TR-FRET (AID 1438); type: protein assay
[3] = molecular target: T3, Zinc finger protein mex-5 (Caenorhabditis elegans, UniProt Q9XUB2); assay: potency of MEX-5 RNA-binding blockers – biochemical, C. elegans, fluorescence polarization, dose response (AID 1960)
T3 sequence (Q9XUB2 whole entry): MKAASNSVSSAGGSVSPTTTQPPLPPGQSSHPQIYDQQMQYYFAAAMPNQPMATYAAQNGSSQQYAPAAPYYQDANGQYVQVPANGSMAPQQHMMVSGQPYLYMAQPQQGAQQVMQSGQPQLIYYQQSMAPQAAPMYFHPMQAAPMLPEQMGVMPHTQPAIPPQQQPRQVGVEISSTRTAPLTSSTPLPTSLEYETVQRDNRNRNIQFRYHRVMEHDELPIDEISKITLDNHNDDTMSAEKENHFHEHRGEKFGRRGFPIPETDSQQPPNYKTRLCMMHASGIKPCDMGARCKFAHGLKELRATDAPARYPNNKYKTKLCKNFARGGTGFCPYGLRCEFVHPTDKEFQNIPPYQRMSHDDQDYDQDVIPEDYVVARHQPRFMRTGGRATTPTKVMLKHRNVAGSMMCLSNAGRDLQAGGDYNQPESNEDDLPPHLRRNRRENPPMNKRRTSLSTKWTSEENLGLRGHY

[4] = molecular target: T2, Runt-related transcription factor 1/Core-binding factor subunit beta; assay: disruptors of Runt domain/CBFb-SMMHC interaction – biochemical, FRET, Cerulean-Runt, Venus-CBFb-SMMHC, uHTS, […] (AID 1434); type: protein assay
[5] = molecular target: T4, Eukaryotic translation initiation factor 2-alpha kinase 3 (Homo sapiens, UniProt Q9NZJ5); assay: Dose response cell-based high-throughput screening assay to measure PERK inhibition. [Related pubchem assays: 1416 ]; type: functional
T4 sequence (Q9NZJ5 whole entry): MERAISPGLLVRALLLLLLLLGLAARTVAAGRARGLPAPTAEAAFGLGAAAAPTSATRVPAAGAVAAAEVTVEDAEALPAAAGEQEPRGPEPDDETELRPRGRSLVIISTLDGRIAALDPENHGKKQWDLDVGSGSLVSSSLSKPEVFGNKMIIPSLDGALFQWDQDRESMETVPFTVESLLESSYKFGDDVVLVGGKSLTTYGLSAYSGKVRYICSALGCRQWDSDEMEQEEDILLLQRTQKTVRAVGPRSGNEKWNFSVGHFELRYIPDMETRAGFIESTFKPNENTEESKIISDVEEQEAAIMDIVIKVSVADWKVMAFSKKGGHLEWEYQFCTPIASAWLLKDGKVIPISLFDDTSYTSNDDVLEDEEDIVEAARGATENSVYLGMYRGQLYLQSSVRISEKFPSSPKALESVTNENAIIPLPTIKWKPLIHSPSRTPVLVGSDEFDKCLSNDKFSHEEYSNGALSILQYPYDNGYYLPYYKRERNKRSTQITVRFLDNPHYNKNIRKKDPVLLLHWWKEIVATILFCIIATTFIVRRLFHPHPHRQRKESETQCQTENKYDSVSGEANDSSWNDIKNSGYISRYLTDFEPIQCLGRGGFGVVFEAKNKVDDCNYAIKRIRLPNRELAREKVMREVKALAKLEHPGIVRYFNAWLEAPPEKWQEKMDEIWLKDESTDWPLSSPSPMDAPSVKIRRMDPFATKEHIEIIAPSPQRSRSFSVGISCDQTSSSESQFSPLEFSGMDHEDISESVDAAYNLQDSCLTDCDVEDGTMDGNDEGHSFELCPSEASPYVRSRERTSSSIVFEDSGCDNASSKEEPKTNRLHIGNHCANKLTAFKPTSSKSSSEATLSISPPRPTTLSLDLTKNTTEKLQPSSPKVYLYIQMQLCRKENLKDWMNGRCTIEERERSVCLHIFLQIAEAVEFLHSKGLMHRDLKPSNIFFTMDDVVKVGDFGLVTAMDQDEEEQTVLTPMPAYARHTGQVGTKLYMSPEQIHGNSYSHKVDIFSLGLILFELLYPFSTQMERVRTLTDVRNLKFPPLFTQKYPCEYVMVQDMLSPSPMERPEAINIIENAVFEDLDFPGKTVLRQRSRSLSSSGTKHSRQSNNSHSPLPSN

[6] = molecular target: T4, Eukaryotic translation initiation factor 2-alpha kinase 3; assay: Counterscreen assay for PERK inhibitors: Dose response cell-based high throughput screening assay to measure inhibition of PERK at 6 hours. [Related pubchem assays: 1522, 1416 ]; type: functional
[7] = molecular target: Eukaryotic translation initiation factor 4E (Mus musculus, UniProt P63073); assay: blockers of eIF4G binding by eIF4E – biochemical, TR-FRET, dose response (AID 855); type: functional;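 also: potency for disrupting eIF4E binding to eIF4GI seen as loss of FRET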
[8] = molecular target: DNA dC->dU-editing enzyme APOBEC-3G (Homo sapiens, UniProt Q9HC16); assay: Dose Response confirmation of small molecule APOBEC3G DNA Deaminase Inhibitors via a fluorescence-based single-stranded DNA deaminase assay. [Related pubchem assays (depositor defined):AID493012, AID493028]; type: functional
[9] = molecular target: DNA dC->dU-editing enzyme APOBEC-3A (Homo sapiens, UniProt P31941); assay: A3A deaminase inhibition for selectivity – biochemical, dose response (AID 504722); type: functional
Coagulation factor XII = molecular target: T5, Coagulation factor XII (Homo sapiens, UniProt P00748); assay: Factor XIIa Dose Response Confirmation from Single Well HTS. [Related pubchem assays (depositor defined):AID701]; type: functional
T5 sequence (P00748 whole entry): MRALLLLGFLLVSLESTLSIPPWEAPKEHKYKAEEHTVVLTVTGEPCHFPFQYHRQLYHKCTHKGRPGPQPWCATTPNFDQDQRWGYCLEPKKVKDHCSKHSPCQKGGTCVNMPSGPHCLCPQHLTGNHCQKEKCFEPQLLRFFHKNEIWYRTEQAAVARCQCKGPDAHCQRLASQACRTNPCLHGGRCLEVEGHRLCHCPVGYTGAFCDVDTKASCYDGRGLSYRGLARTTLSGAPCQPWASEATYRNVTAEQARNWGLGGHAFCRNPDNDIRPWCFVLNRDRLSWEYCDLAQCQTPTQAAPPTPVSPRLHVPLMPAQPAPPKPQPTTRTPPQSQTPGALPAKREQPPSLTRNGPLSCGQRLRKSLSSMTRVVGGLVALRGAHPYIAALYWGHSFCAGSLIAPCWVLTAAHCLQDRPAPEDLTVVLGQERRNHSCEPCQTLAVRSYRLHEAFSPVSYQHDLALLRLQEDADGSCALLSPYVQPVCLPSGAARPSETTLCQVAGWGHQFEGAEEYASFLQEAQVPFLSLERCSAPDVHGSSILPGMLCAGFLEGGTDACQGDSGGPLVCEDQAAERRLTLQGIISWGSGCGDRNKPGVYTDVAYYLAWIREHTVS

CAAX prenyl protease 2 = CAAX prenyl protease 2 (Saccharomyces cerevisiae S288c, UniProt Q03530); type: biochemical
Trypsin = Trypsin (Sus scrofa, UniProt P00761); assay: trypsin protease activity blockade – biochemical, quenched peptide fluorescence, cherry-pick, selectivity assay for Rce1 protease inhibitor project, dose response (AID 488789)
Trypanosoma cruzi = assay: anti-trypanosomal activity in host cells – cell-based, plate reader, dry powder, set 3, dose response (AID 493197); type: functional
[10] = molecular target: Induced myeloid leukemia cell differentiation protein Mcl-1 (Homo sapiens, UniProt Q07820); type: functional
[11] = molecular target: T6, Rac GTPase-activating protein 1 (Homo sapiens, UniProt Q9H0H5); assay: blockers of MgcRacGAP-driven Rac1 GTP hydrolysis – biochemical, ADP Hunter fluorescence, primary and confirmatory, confirmation (AID 624330); type: functional
T6 sequence (Q9H0H5 whole entry): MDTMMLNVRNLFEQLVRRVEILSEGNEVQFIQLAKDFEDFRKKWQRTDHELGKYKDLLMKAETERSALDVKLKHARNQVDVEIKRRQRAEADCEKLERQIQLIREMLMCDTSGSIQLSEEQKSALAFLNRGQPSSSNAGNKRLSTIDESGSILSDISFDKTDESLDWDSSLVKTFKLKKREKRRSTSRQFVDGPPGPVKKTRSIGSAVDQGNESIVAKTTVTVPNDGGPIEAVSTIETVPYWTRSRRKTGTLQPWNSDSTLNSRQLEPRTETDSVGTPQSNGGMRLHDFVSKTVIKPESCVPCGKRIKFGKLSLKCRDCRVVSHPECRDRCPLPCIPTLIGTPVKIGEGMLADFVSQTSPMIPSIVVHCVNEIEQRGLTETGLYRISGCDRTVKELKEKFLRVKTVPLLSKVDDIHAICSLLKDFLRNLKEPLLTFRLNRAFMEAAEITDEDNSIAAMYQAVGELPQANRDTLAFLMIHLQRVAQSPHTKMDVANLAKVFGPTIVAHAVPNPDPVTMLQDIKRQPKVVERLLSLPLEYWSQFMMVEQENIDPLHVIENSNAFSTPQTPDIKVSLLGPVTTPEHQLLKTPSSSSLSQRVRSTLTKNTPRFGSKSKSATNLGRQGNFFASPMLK

[12] = molecular target: Glyceraldehyde-3-phosphate dehydrogenase (Homo sapiens, UniProt P04406)
[13] = molecular target: T7, Alkaline phosphatase, tissue-nonspecific isozyme (Homo sapiens, UniProt P05186); assay: potency against alkaline phosphatase TNAP – biochemical, luminescent, dose response, SAR follow-up (AID 1056)
T7 sequence (P05186 whole entry): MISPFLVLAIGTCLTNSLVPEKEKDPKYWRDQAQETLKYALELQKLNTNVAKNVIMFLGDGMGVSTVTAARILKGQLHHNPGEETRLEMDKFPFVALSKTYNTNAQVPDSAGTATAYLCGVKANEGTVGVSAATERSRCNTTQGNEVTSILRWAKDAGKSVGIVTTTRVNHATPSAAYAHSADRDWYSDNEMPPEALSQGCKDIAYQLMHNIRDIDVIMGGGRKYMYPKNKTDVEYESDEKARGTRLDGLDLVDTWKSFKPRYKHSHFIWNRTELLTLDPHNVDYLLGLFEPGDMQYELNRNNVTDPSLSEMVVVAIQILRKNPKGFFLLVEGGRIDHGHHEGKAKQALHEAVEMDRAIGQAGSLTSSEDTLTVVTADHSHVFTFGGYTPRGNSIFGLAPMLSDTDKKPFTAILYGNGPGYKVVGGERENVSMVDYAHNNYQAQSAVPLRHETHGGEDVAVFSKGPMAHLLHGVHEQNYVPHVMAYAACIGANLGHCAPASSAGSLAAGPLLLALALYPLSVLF

[14] = molecular target: Glucose-6-phosphate 1-dehydrogenase (Homo sapiens, UniProt P11413); assay: inhibition of Homo sapiens G6PD, dose series – biochemical, fluorescence, selectivity assay for P. falciparum G6PD inhibitor project, dose response (AID 504792); type: functional
[15] = HEK-293T cell viability reduction – luminescence, B-cell screen hits, cytotoxicity control for BCR NF-kB inhibitor project, dose response (AID 489021); type: functional, cell-based;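 also: HEK-293T cells carrying an NF-kB luciferase reporter; cells exposed to compound for about 14 hours before viability readout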
[16] = molecular target: Intestinal-type alkaline phosphatase (Homo sapiens, UniProt P09923); assay: Dose Response confirmation of uHTS hits from a small molecule inhibitors of human intestinal alkaline phosphatase via a luminescent assay. [Related pubchem assays (depositor defined):AID2544, AID2574]; type: functional
Sequence of Intestinal-type alkaline phosphatase (P09923 whole entry): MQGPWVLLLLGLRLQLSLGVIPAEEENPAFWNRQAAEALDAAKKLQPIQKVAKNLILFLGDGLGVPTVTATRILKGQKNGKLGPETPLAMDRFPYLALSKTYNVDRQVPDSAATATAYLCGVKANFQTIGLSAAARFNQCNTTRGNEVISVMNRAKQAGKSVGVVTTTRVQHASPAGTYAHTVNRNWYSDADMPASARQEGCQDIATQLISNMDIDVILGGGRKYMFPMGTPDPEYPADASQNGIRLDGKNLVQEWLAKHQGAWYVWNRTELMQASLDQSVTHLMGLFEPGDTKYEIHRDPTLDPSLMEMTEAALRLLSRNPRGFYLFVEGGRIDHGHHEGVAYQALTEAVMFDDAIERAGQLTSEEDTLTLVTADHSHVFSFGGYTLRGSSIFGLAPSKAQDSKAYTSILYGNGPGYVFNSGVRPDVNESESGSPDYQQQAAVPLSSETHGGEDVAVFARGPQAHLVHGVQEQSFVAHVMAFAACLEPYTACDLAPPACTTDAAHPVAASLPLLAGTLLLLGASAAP

Sequence of Eukaryotic translation initiation factor 4E (P63073 whole entry): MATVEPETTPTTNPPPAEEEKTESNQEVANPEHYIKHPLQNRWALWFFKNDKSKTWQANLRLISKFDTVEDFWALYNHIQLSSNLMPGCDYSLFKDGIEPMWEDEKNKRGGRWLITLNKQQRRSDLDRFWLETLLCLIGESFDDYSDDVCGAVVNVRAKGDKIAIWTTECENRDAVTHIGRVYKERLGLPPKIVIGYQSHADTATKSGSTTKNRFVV
T2 sequence (Q01196 whole entry, the tested form may be a part): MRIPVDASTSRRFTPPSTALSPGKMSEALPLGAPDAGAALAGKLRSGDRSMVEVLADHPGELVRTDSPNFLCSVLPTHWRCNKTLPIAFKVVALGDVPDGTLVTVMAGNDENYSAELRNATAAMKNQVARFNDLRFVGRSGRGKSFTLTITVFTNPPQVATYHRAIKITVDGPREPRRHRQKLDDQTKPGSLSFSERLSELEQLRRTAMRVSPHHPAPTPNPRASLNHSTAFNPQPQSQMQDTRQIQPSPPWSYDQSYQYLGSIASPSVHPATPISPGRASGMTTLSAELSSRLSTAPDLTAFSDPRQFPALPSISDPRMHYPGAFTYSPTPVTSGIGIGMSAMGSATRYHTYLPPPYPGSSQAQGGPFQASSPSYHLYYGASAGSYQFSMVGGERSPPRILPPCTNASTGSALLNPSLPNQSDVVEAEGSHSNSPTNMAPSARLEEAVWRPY
T2 sequence (Q13951 whole entry, the tested form may be a part): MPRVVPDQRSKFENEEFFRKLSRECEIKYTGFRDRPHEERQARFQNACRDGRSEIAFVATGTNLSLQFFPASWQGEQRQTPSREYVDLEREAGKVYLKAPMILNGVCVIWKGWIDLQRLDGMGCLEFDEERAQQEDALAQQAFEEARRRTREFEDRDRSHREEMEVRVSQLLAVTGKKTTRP
Sequence of DNA dC->dU-editing enzyme APOBEC-3A (P31941 whole entry): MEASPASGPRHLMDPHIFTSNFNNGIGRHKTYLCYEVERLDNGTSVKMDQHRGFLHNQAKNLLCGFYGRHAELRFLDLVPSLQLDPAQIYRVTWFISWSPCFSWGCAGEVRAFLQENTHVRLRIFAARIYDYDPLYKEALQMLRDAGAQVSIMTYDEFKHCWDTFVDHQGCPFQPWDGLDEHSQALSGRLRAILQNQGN
Sequence of DNA dC->dU-editing enzyme APOBEC-3G (Q9HC16 whole entry): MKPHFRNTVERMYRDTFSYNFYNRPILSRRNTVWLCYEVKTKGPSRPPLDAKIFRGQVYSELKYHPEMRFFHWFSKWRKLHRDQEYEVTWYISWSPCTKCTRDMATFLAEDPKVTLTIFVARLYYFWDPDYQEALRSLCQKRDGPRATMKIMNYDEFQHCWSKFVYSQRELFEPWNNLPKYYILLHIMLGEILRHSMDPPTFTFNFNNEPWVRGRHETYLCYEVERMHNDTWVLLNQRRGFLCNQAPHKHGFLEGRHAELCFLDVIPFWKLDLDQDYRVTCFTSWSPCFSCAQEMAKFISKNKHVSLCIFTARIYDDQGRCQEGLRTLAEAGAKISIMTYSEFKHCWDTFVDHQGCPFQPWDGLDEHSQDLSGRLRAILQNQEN
Sequence of CAAX prenyl protease 2 (Q03530 whole entry): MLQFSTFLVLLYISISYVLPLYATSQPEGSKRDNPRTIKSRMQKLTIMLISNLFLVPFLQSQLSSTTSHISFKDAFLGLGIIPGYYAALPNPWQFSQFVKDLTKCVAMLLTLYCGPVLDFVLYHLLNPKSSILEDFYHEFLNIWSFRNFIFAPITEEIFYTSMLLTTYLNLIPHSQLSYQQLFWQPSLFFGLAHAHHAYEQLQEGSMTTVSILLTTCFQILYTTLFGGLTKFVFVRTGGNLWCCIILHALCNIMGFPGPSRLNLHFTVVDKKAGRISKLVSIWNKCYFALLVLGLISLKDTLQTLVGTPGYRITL
Sequence of Trypsin (P00761 whole entry): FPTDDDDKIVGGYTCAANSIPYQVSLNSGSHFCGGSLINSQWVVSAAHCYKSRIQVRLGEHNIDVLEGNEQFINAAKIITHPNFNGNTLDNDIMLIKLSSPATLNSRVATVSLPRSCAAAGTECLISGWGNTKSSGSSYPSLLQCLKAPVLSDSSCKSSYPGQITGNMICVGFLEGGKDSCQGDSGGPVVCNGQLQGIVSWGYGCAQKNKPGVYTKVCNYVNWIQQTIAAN
Sequence of Glyceraldehyde-3-phosphate dehydrogenase (P04406 whole entry): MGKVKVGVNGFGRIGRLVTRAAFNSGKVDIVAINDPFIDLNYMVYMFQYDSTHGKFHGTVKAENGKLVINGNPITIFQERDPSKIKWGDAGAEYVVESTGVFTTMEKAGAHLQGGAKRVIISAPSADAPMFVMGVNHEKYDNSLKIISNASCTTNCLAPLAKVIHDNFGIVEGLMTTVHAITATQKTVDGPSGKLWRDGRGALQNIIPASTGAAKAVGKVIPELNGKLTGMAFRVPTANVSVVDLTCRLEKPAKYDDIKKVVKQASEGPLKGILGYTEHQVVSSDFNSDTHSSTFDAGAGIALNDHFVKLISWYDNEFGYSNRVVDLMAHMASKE
Sequence of Induced myeloid leukemia cell differentiation protein Mcl-1 (Q07820 whole entry): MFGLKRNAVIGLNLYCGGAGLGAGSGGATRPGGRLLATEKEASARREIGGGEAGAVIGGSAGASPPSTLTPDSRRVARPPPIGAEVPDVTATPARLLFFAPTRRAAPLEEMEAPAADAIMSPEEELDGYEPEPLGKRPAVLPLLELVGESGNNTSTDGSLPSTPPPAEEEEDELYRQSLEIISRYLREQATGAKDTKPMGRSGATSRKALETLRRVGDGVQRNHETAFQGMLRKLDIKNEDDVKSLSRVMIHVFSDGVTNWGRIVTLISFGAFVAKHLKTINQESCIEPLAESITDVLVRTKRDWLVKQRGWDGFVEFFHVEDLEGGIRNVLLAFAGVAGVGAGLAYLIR
Sequence of Glucose-6-phosphate 1-dehydrogenase (P11413 whole entry): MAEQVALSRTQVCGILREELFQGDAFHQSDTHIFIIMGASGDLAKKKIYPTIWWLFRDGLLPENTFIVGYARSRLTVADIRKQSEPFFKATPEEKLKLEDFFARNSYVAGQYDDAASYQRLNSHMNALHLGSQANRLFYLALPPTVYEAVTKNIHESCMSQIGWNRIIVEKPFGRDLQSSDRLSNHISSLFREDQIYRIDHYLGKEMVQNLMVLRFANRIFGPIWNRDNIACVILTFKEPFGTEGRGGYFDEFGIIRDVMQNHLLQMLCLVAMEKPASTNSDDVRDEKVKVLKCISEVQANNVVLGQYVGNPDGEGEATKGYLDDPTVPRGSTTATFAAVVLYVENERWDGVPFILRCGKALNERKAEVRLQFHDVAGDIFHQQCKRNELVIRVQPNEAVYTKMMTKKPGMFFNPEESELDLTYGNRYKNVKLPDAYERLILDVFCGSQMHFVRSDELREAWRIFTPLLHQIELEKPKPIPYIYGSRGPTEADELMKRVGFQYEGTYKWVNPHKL

Compound: Oc1ccc(-c2cnns2)c(O)c1
- EC50 [1]: 45.5 µM (active)
- IC50 [2]: 19.9 µM (active)
- EC50 [3]: 10.4 µM (active)
- IC50 [4]: 31.5 µM (active)

Compound: N/C(=N\N=C\c1ccc([N+](=O)[O-])cc1)c1nonc1N
- EC50 [5]: > 55.7 µM (not active)
- EC50 [6]: > 55.7 µM (not active)

Compound: Cc1ccc(-c2cn3c(S)nnc3s2)cc1
- IC50 [8]: 2.61 µM (active)
- IC50 [9]: > 100 µM (inactive)

Compound: COC(=O)c1cnn2c3c(c(C)nc12)CCCC3
- AC50 (CAAX prenyl protease 2): 10.3 µM (active)
- AC50 (Trypsin): 8.29 µM (active)

Compound: CN(Cc1ccccc1)C(=O)C1CCCN(Cc2ccccc2)C1 (stereo not given)
- AC50 (Trypanosoma cruzi): 5.07 µM (active)

Compound: COc1cc(/C=N/n2cc(-c3ccccc3)nc2S)cc(OC)c1O
- IC50 [8]: 5.9 µM (active)
- IC50 [14]: > 80 µM (inactive)
- IC50 [9]: > 100 µM (inactive)

Compound: COC(=O)c1c(NC(=O)c2cccc([N+](=O)[O-])c2)sc(C(N)=O)c1C
- IC50 [15]: > 80 µM (inactive)

Compound: COc1ccc(CCN2C(=O)c3ccncc3C2=O)cc1OC
- IC50 [16]: > 100 µM (inactive)

The next lines start with the values.

- EC50 [5]: > 55.7 µM (not active)
- EC50 [6]: > 55.7 µM (not active)
Compound: C/C(=N/N=C1\SCC(=O)N1c1ccccc1)c1ccc(C)cc1

- IC50 [7]: 50 µM (inactive)
Compound: CSc1cccc(NC(=S)N(Cc2ccc(C)cc2)Cc2cccnc2)c1

- IC50 (Coagulation factor XII): > 50 µM (inactive)
Compound: Cc1ccc(-c2n[nH]c(=O)c3ccccc23)cc1S(=O)(=O)NCCO

- IC50 [10]: 1.67 µM (active)
- IC50 [11]: 59.2 µM (active)
- IC50 [7]: 50 µM (inactive)
Compound: O=C1C=CC(=Nc2nc(O)c(-c3c(O)[nH]c4ccccc34)s2)C=C1

- IC50 [12]: > 10 µM (inconclusive)
- IC50 [13]: > 10 µM (inactive)
Compound: COc1ccccc1C(=O)Nc1cnc2ccccc2c1
